28 compounds from ChEMBL document CHEMBL1144214, “Structure-activity relationships of compounds targeting mycobacterium tuberculosis 1-deoxy-D-xylulose 5-phosphate synthase” (Bioorg Med Chem Lett, 2008) can be followed below.

The target in test [1] is T1, 1-deoxy-D-xylulose-5-phosphate synthase (Mycobacterium tuberculosis, UniProt P9WNS3).
T1 sequence (P9WNS3 whole entry): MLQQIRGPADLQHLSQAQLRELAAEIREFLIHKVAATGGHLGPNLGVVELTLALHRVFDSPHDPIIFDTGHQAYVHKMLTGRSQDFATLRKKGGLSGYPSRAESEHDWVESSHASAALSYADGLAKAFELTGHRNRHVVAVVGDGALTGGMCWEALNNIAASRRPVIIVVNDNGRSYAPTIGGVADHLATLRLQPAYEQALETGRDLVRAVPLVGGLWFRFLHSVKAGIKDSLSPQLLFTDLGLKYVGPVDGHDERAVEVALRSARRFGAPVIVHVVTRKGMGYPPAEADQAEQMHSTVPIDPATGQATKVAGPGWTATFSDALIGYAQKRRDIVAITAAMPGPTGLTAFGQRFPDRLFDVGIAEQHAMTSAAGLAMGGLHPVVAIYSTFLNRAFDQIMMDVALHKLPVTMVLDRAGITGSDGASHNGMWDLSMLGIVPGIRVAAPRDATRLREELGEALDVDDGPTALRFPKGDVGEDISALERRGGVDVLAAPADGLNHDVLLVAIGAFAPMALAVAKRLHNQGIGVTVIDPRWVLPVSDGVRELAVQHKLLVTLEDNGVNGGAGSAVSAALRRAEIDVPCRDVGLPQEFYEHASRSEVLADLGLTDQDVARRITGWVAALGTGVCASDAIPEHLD
Briefly: Inhibition of Mycobacterium tuberculosis cloned 1-deoxy-D-xylulose-5-phosphate synthase expressed in Escherichia coli.

For test [2], the system named is Mycobacterium tuberculosis. Briefly: Antituberculosis activity against Mycobacterium tuberculosis. Type of test: functional.
A further test concerns Vero. Briefly: Cytotoxicity against african green monkey Vero cells. Type of test: cell-based. As to conditions: Chlorocebus sabaeus.
The target in the next test is T2, Transketolase (Homo sapiens, UniProt P29401).
T2 sequence (P29401 whole entry): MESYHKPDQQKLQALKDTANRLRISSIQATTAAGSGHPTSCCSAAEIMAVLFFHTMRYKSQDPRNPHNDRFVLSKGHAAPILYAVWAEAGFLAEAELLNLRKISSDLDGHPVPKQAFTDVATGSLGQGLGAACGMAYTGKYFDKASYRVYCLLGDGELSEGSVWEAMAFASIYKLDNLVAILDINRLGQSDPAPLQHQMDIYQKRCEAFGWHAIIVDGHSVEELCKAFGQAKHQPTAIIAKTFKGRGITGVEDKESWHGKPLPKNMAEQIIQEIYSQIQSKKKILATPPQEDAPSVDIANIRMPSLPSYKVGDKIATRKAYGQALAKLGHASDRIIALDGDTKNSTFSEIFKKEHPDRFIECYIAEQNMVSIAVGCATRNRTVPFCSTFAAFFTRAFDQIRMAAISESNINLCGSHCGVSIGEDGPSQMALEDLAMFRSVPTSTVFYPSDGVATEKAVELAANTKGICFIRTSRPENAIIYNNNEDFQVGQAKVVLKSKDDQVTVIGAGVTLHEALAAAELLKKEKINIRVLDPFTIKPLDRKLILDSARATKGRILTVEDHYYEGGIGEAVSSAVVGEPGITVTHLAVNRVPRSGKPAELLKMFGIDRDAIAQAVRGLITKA
Briefly: Inhibition of human recombinant transketolase expressed in Escherichia coli.

Test [3] is described as follows: Selectivity index, ratio of IC50 for african green monkey Vero cells to MIC for Mycobacterium tuberculosis. Format: functional.

≈ marks a conversion by molar mass, not a printed value.

Usually IC50 stands for the concentration needed to halve the response being measured. Consider `CCOC(=O)Cc1c(C)nc2c(-c3ccccc3)cnn2c1O`, for which the IC50 in test [1] was > 200 µM.
Same read-out and setting: as for `O=c1cc(Cc2ccccc2)[nH]c2c(-c3ccccc3)c(C(F)(F)F)nn12`, the figure is 71.1 µM; as for `Cc1cc(=O)n2ncc(-c3ccc(Cl)cc3)c2[nH]1`, > 200 µM; as for `Oc1cc(-c2ccccc2)nc2c(-c3ccccc3)c(C(F)(F)F)nn12`, 23 µM.
On the same count and under the same terms, as for `Cc1nn2c(=O)cc(CSc3ccc(Cl)cc3)[nH]c2c1-c1ccc(Cl)cc1`, the figure is 41.4 µM; as for `CCc1nn2c(=O)cc(-c3ccc(OC)cc3)[nH]c2c1-c1ccc(Cl)cc1`, 19.7 µM; as for `COc1ccc(-c2c(C(F)(F)F)nn3c(O)cc(-c4ccccc4)nc23)cc1`, 20.2 µM.
As a reminder, the MIC is the lowest concentration found to suppress growth. For `COc1ccc(-c2cc(=O)n3nc(C)c(-c4ccc(F)cc4)c3[nH]2)cc1`, the IC50 was found to be 10.6 µM in test [1] and 35.6 µM with Vero. In test [2], this compound displayed a minimal inhibitory concentration (MIC) of 7.7 µM (≈ 2.69 µg/mL).
For `COCc1cc(=O)n2ncc(-c3ccc(Cl)cc3)c2[nH]1`, the IC50 in test [1] was > 200 µM.
Still for that read-out and setting: as for `O=c1cc(Cc2ccccc2)[nH]c2c(-c3ccc(Cl)cc3)c(C(F)(F)F)nn12`, the figure is 14 µM.
Same read-out and setting: as for `Cc1nn2c(=O)cc(CSc3ccc(Cl)cc3)[nH]c2c1-c1ccccc1`, the figure is 63.7 µM.
For `O=c1cc(Cc2ccccc2)[nH]c2c(-c3ccc(Cl)cc3)cnn12`, the values for the concentration for half-maximal inhibition (IC50) (in test [1]; on Transketolase) were 114 µM and 3.9 µM, respectively.
Regarding `COc1ccccc1-c1cc(=O)n2nc(C)c(-c3ccc(Br)cc3)c2[nH]1`, the IC50 in test [1] was determined as 53.5 µM.
Still for that read-out and setting: the figure for `Brc1cccc(-c2cnn3c(-c4ccccc4)cc(-c4ccccc4)nc23)c1` is > 200 µM.
The same measure, in the same setting: the figure for `Cc1nn2c(=O)cc(CSc3nnnn3-c3ccccc3)[nH]c2c1-c1ccc(Cl)cc1` is 55.1 µM; for `COCc1cc(=O)n2nc(C)c(-c3ccc(Cl)cc3)c2[nH]1` it is > 200 µM; for `COc1ccc(-c2c(C)nn3c(=O)cc(-c4ccccc4)[nH]c23)cc1` it is 90.7 µM.
Consider `O=c1cc(CCl)[nH]c2c(-c3ccccc3)cnn12`, for which the half-maximal inhibitory concentration (IC50) in test [1] is > 200 µM.
Turning to `Cc1nn2c(=O)cc(-c3ccccc3)[nH]c2c1-c1ccc(Cl)cc1`, the IC50 in test [1] worked out at 34.2 µM; in the test with Vero, 39.5 µM. The MIC in test [2] is 14.2 µM (≈ 4.77 µg/mL). Besides, the “Selectivity Index” value in test [3] came out at 4.6.
In test [1], `Cc1nn2c(=O)cc(-c3ccc4ccccc4c3)[nH]c2c1-c1ccccc1` came in with an IC50 of 19.5 µM.
In test [1], `Cc1cc(=O)n2nc(C(F)(F)F)c(-c3ccc(Cl)cc3)c2[nH]1` displayed a half-inhibitory concentration (IC50) of 98.4 µM.
With `COc1ccc(-c2cc(=O)n3nc(C)c(-c4ccc(Cl)cc4)c3[nH]2)cc1`, the IC50 is 10.9 µM in test [1] and 16 µM with Vero. The compound also came in with a minimum inhibitory concentration (MIC) in test [2] of 7.6 µM (≈ 2.78 µg/mL).
Take `Cc1[nH]c2c(-c3ccc(Cl)cc3)c(C(F)(F)F)nn2c(=O)c1Cc1ccccc1`: the IC50 in test [1] was > 200 µM.
For `COc1ccc(-c2cc(=O)n3nc(C)c(-c4ccc(OC)cc4)c3[nH]2)cc1`, the IC50 in test [1] was found to be 42.4 µM; with Vero, 80.9 µM. In addition, 61.8 µM (≈ 22.3 µg/mL) was the least that counted as inhibitory in test [2] (MIC). For the same compound, the “Selectivity Index” value in test [3] came to 2.1.
As to `Cc1cc(=O)n2nc(C(F)(F)F)c(-c3ccc(Br)cc3)c2[nH]1`, the concentration for half-maximal inhibition (IC50) in test [1] was > 200 µM.
The same measure, in the same setting: the figure for `COC(=O)Cc1cc(=O)n2nc(C(F)(F)F)c(-c3ccc(Br)cc3)c2[nH]1` is 73 µM.
On to `FC(F)(F)c1cc(-c2ccc(Cl)cc2)nc2c(-c3ccc(Cl)cc3)cnn12`, for which, in test [1], the 50% inhibitory concentration (IC50) is > 200 µM.
Same read-out and setting: the figure for `Cc1nn2c(=O)cc(-c3ccccc3)[nH]c2c1-c1ccccc1` is 30.6 µM.
